pIC50: −log10 of the molar value.

This is an account of results in patent publication US7030246B2, “Tetrahydroquinoline derivatives as stat6-modulators, preparation and use thereof” (Astrazeneca AB, priority 2001, dated 2006).

The experiment relates to STAT6 signaling pathway. Kind of experiment: Inhibition of STAT6-driven reporter gene activity (IL-4 induced luciferase in transfected U937 cells). Format: cell-based. As to conditions: U-937; U937 cells stably transfected with IL-4 responsive luciferase reporter; 10 ng/ml recombinant human IL-4, 4–5 h; compound added 5 min before IL-4; read-out: IC50 (concentration of compound giving 50 percent inhibition of the luciferase response to addition of IL-4). The text has this: The ability of the compounds described herein to inhibit STAT6 signaling pathway is manifested in their ability to inhibit STAT6 driven reporter gene activity.
The cytokine-responsive human cell line U937 were transfected with a reporter gene plasmid consisting of an interluekin 4 (IL-4) responsive promoter driving the heterologous firefly gene for luciferase. The reporter gene plasmid also contained a gene for neomycin resistance. The IL-4 responsive promoter were constructed by four oligomerized combined C/BEPβ and STAT6 binding sites with the nucleotide sequence […] in close contact with a TATA-box. Cells with a stable integration of the reporter gene plasmid were selected by cultivation in neomycin. Such transfected cells were used for IL-4 induction by adding 10 ng/ml recombinant human IL-4 to 0.5–1×10^6 cells per ml. IL-4 induction were carried out for 4–5 h. Thereafter the cells were lysed and luciferase activity determined by using standard techniques. Numbers measured are the mean fold induction (fold induction for U937 is defined as the luciferase response in an IL-4 treated U937 cell sample divided by the luciferase response in an untreated U937 cell sample). Typically, IL-4 stimulation gave 15–20 fold induction of the luciferase response. Compounds were added 5 min before IL-4 when tested in the reporter gene assay. Compound effect was expressed as the concentration of compound giving 50 percent inhibition (IC50) of the luciferase response to addition of IL-4.
For `CC(=O)N1c2ccccc2[C@H](Nc2ccc(C)cc2)C[C@@H]1C` (relative stereo) [No 27 Table I, (2S*,4R*)-1-Acetyl-2-methyl-N-(4-methylphenyl)-1,2,3,4-tetrahydro-4-quinolinamine], the pIC50 is 6.10.

With `CC(=O)N1c2ccccc2[C@H](Nc2ccc(C#N)cc2)C[C@@H]1C` (relative stereo) [No 36 Table I, 4-{[(2S*,4R*)-1-acetyl-2-methyl-1,2,3,4-tetrahydro-4-quinolinyl]amino}benzonitrile], the pIC50 is 6.37.

As for `CC(=O)N1c2ccc(I)cc2[C@H](Nc2ccccc2)C[C@@H]1C` (relative stereo) [No 74 Table I, (2S*,4R*)-1-Acetyl-1,2,3,4-tetrahydro-6-iodo-2-methyl-N-phenyl-4-quinolinamine], the pIC50 was 6.74.
